According to paper PMC9863987, “Identification of Aryl Polyamines Derivatives as Anti-Trypanosoma cruzi Agents Targeting Iron Superoxide Dismutase” (Pharmaceutics, 2022):

Experiments:
[1] = test system: T. cruzi Arequipa strain epimastigotes; experiment: Screening against extracellular epimastigotes, Arequipa strain (resazurin); type: cell-based, Trypanosoma cruzi
Procedure: (§1) Three different T. cruzi […] strains—MHOM/Pe/2011/Arequipa, discrete typing unit (DTU) V [26]; IRHOD/CO/2008/SN3, DTU I [27]; TINF/CH/1956/Tulahuen, DTU VI [26]—were grown at 28 °C in Gibco® RPMI 1640 Medium supplemented as previously reported, and used for in vitro screening.
(§2) Trypanocidal activity against epimastigotes was tested as previously reported. In brief, 5 × 10^5 mL^−1 epimastigotes culture medium were treated by adding the compounds in serial dilutions from 100 to 0.2 µM in 96-well plates (200 µL·well^−1) for 48 h. BZN and untreated growth control were also included in triplicate. Later, 20 μL of resazurin sodium salt (Sigma-Aldrich, St. Louis, MO, USA) was added, and the plates were incubated for another 24 h. Finally, the absorbance of the wells was measured at 570/600 nm and related to the control. The trypanocidal activity was expressed as the IC50 (inhibitory concentration 50) value using GraphPad Prism 6 software.

[2] = test system: T. cruzi SN3 strain epimastigotes; experiment: Screening against extracellular epimastigotes, SN3 strain (resazurin); type: cell-based, Trypanosoma cruzi
Procedure: as §1, §2

[3] = test system: T. cruzi Tulahuen strain epimastigotes; experiment: Screening against extracellular epimastigotes, Tulahuen strain (resazurin); type: cell-based, Trypanosoma cruzi
Procedure: as §1, §2

[4] = test system: T. cruzi Tulahuen strain amastigotes; experiment: Screening against intracellular amastigotes in Vero cells, Tulahuen strain (Giemsa counting); type: cell-based, Trypanosoma cruzi
Procedure: TINF/CH/1956/Tulahuen, DTU VI [26]—were grown at 28 °C in Gibco® RPMI 1640 Medium supplemented as previously reported, and used for in vitro screening. Trypanocidal activity against amastigotes was tested as previously reported. In brief, bloodstream trypomastigotes (BTs), obtained by cardiac puncture from infected BALB/c mice, were used to infect 1 × 10^4 Vero cells·well^−1 in 24-well plates with rounded coverslips at a multiplicity of infection (MOI) ratio of 10:1. After 24 h of infection, non-internalized trypomastigotes were washed and the infected cells were treated by adding the compounds in serial dilutions from 50 to 0.5 µM in […] for 72 h. BZN and untreated growth controls were also included in triplicate. Later, the number of amastigotes and infected cells were determined in Giemsa stained preparations by analysing 500 host cells randomly distributed in microscopic fields. The trypanocidal activity was expressed as the IC50 using GraphPad Prism 6 software (version 6.07).

[5] = test system: T. cruzi Arequipa strain; experiment: Monitoring of acute parasitaemia by counting in infected BALB/c mice; type: in vivo, Trypanosoma cruzi; details: acute infection
Procedure: All animal work (Scheme 1) and maintenance was performed under RD53/2013 and approved by the Ethics Committee on Animal Experimentation (CEEA) of the University of Granada, Spain. Female BALB/c mice (aged 10–12 weeks and 20–22 g) were used in the subsequent in vivo assays.
(§3) Infection was carried out by intraperitoneal inoculation of 5 × 10^5 BTs of T. cruzi Arequipa strain per mouse in 0.2 mL PBS [26]. The infection was monitored and on the 10th day post-infection (dpi), when BTs were visible in the bloodstream, the infection was confirmed.
(§4) Mice were divided into four groups (n = 3 per group): 0, negative control group (uninfected and untreated mice); I, positive control group (infected and untreated mice); II, BZN group (mice infected and treated with BZN); III, 15 group (mice infected and treated with 15).
(§5) The treatment for mice treated in the acute and chronic CD began when the infection was confirmed (10th dpi) and was stablished that the animals had entered the chronic CD (75th dpi), respectively (Scheme 1). Compound 15 and BZN were orally administered for 5 consecutive days at a dose of 20 mg·Kg^−1·day^−1.
[…]. The fresh blood microscopic examination was performed from the 7th day until the day when parasitaemia was not detected (Scheme 1).

[6] = test system: T. cruzi Arequipa strain; experiment: Infection reactivation by cyclophosphamide immunosuppression in infected BALB/c mice; type: in vivo, Trypanosoma cruzi; details: oral 20 mg/Kg/day for 5 days, related to control group
[7] = test system: T. cruzi Arequipa strain; experiment: Nested amastigotes detection by PCR in nine target organs/tissues of infected BALB/c mice; type: in vivo, Trypanosoma cruzi; details: oral 20 mg/Kg/day for 5 days
Procedure: as §3, §4, §5
After CP-induced immunosuppression, the mice were euthanised using CO2 by exsanguination via cardiac puncture, and blood was collected. Then, 9 target organs/tissues were harvested: adipose, bone marrow, brain, oesophagus, heart, lung, muscle, spleen, and stomach. These organs/tissues were perfused with pre-warmed PBS to avoid contamination with BTs, and stored at −80 °C. In addition, spleens were weighed to assess splenomegaly.
DNA extraction of the target organs/tissues was performed using Wizard® Genomic DNA Purification Kit. DNA was subjected to amplification by PCR based on the sequence of the T. cruzi splice leader (SL) intergenic region using two published primers (TC and TC1) that allow the amplification of a 300 base pairs fragment in different biological samples. […]

[8] = IC50 Vero cells/IC50 epimastigotes
[9] = treatment in the acute infection

SMILES: c1cc2nc(c1)CNCCN(CCNCc1ccc3ccc4ccc(CNCCN5CCNCc6cccc(n6)CNCC5)nc4c3n1)CCNC2 [Compound 15]
- Selectivity Index T. cruzi Arequipa Strain E [1, 8]: 101.7
- IC50 ([1]; Trypanosoma cruzi, epimastigotes, 48 h treatment + 24 h resazurin, mean of three ± SD, read-out: Activity IC50 T. cruzi Arequipa Strain E): 6.4 ± 0.6 µM
- Selectivity Index T. cruzi SN3 Strain E [2, 8]: 38.7
- IC50 ([2]; Trypanosoma cruzi, epimastigotes, 48 h treatment + 24 h resazurin, mean of three ± SD, read-out: Activity IC50 T. cruzi SN3 Strain E): 16.9 ± 1.4 µM
- Selectivity Index T. cruzi Tulahuen Strain E [3, 8]: 57.4
- IC50 ([3]; Trypanosoma cruzi, TULAHUEN, epimastigotes, 48 h treatment + 24 h resazurin, mean of three ± SD, read-out: Activity IC50 T. cruzi Tulahuen Strain E): 11.4 ± 1.1 µM
- Selectivity Index T. cruzi Tulahuen Strain A ([4]; IC50 Vero cells/IC50 amastigotes): 96.3
- IC50 ([4]; Trypanosoma cruzi, TULAHUEN, amastigotes in Vero cells, 72 h, mean of three ± SD): 6.8 ± 0.7 µM
- parasitaemia reduction on the day of maximum parasitaemia ([5]; oral 20 mg/Kg/day for 5 days from 10th dpi, vs untreated control): ~ 65%
- parasitaemia undetectable, days before control mice ([5]; oral 20 mg/Kg/day for 5 days, control detectable up to 50 dpi): 5 days
- reactivation of parasitaemia after immunosuppression [6, 9]: 60%
- reactivation of parasitaemia after immunosuppression ([6]; treatment in the chronic infection (from 75th dpi)): 26%
- clearance of nested parasites in target organs/tissues (parasite-free organs/tissues, PCR) [7, 9]: 67%
- clearance of nested parasites in target organs/tissues (parasite-free organs/tissues, PCR) ([7]; treatment in the chronic infection): 89%
